Experiment: xn = mol fraction of the nth substance listed
Conditions: 101 kPa, Liquid; for viscosity: Falling or rolling sphere viscometry; for speed of sound: Sing-around technique in a fixed-path interferometer; for mass density: Vibrating tube method

CCn1cc[n+](C)c1.O=S(=O)([N-]S(=O)(=O)C(F)(F)F)C(F)(F)F + CCO
Conditions | mass density [kg/m3] | speed of sound [m/s] | viscosity [mPa·s]
278.15 K, x1 = 0.051 | 946.21 | 1201.4 | 2.42
278.15 K, x1 = 0.102 | 1052.67 | 1199.9 | 3.44
278.15 K, x1 = 0.198 | 1191.39 | 1210.6 | 5.9
278.15 K, x1 = 0.292 | 1281.48 | 1224.4 | 8.91
278.15 K, x1 = 0.402 | 1356.04 | 1239.1 | 13.41
278.15 K, x1 = 0.501 | 1405.04 | 1250.3 | 18.24
278.15 K, x1 = 0.619 | 1449.8 | 1261.2 | 25.83
278.15 K, x1 = 0.71 | 1476.96 | 1268.1 | 33.19
278.15 K, x1 = 0.811 | 1502.1 | 1274.8 | 43.83
278.15 K, x1 = 0.907 | 1521.68 | 1280 | 56.33
278.15 K, x1 = 1 | 1538.23 | 1284.9 | 75.08
298.15 K, x1 = 0.051 | 927.85 | 1139.3 | 1.57
298.15 K, x1 = 0.102 | 1033.54 | 1142.6 | 2.16
298.15 K, x1 = 0.198 | 1171.44 | 1158.2 | 3.47
298.15 K, x1 = 0.292 | 1261.14 | 1174.5 | 5.02
298.15 K, x1 = 0.402 | 1335.52 | 1190.9 | 7.16
298.15 K, x1 = 0.501 | 1384.32 | 1203 | 9.66
298.15 K, x1 = 0.619 | 1429.22 | 1214.6 | 13.22
298.15 K, x1 = 0.71 | 1456.41 | 1222 | 16.41
298.15 K, x1 = 0.811 | 1481.59 | 1229 | 20.91
298.15 K, x1 = 0.907 | 1501.19 | 1234.4 | 25.67
298.15 K, x1 = 1 | 1517.76 | 1240.1 | 32.02
318.15 K, x1 = 0.051 | 909.21 | 1079.4 | 1.09
318.15 K, x1 = 0.102 | 1014.18 | 1087.3 | 1.46
318.15 K, x1 = 0.198 | 1151.39 | 1107.7 | 2.27
318.15 K, x1 = 0.292 | 1240.83 | 1126.5 | 3.21
318.15 K, x1 = 0.402 | 1315.11 | 1144.5 | 4.59
318.15 K, x1 = 0.501 | 1363.99 | 1157.6 | 5.85
318.15 K, x1 = 0.619 | 1408.9 | 1170 | 7.84
318.15 K, x1 = 0.71 | 1436.15 | 1177.9 | 9.67
318.15 K, x1 = 0.811 | 1461.4 | 1185.3 | 11.96
318.15 K, x1 = 0.907 | 1481.05 | 1191.2 | 14.35
318.15 K, x1 = 1 | 1497.65 | 1196.6 | 17.32
338.15 K, x1 = 0.051 | 889.98 | 1020.7 | 0.79
338.15 K, x1 = 0.102 | 994.4 | 1033.2 | 1.05
338.15 K, x1 = 0.198 | 1131.14 | 1058.3 | 1.6
338.15 K, x1 = 0.292 | 1220.47 | 1079.7 | 2.23
338.15 K, x1 = 0.402 | 1294.8 | 1099.7 | 3.16
338.15 K, x1 = 0.501 | 1343.74 | 1113.9 | 3.99
338.15 K, x1 = 0.619 | 1388.81 | 1127.3 | 5.23
338.15 K, x1 = 0.71 | 1416.16 | 1135.6 | 6.35
338.15 K, x1 = 0.811 | 1441.5 | 1143.7 | 7.7
338.15 K, x1 = 0.907 | 1461.23 | 1150 | 9.11
338.15 K, x1 = 1 | 1477.86 | 1155.8 | 10.82

Reference: the NIST ThermoML archive (doi:10.1021/je500594z)
